Read-outs that look alike come from different tables or passages of the source. Non-standard residues stand in square brackets, D forms with d. Residues, ends and D or L forms follow the SMILES beside them. *: point of attachment. X1 = CC(C)C[C@@H](CN1CCC[N+]2=C1CCC2)N*; X2 = CC(C)C[C@@H](C[N+]1=C2CCCN2CCC1)N*; Pip = O=C(O)[C@@H]1CCCCN1; Iva = CC[C@](C)(N)C(=O)O; Aib = CC(C)(N)C(=O)O; βAla = NCCC(=O)O
Assays:
[1] = test system: Toxoplasma gondii tachyzoites (RH88); assay: microbe, parasite or virus in culture; details: read-out: TgRH88 IC50 (mean ± SEM)
Protocol: For the initial fixed concentration screening and IC50 determination in T. gondii, we utilized a luciferase expressing RH88 strain to quantify the number of live, actively replicating parasites. To construct this strain, the Fluc and DHFR selection markers had been integrated into the UPRT locus through CRISPR/Cas9, rendering the strain pyrimethamine-resistant ([6]). Screening was performed using a pure compound library provided by the University of Oklahoma Natural Products Discovery Group, containing 683 compounds derived primarily from fungal secondary metabolites. For purposes of testing, HFFs were grown in 96-well microtiter plates in preparation. The media we used to grow cells was referred to a D10 media that was composed of Dulbecco's Modified Eagle Medium (Thermo Fisher; Cat # 11995073), 10% Fetal Bovine Serum (Sigma-Aldrich; Cat # 12306C), 1 × non-essential amino acids (100 ×; Thermo Fisher; Cat # 11140050), HEPES buffer (1M; Fisher Scientific; Cat # SH3023701) at 0.4M, and 10 mg/mL of gentamicin (Fisher Scientific; Cat # 15710072). Compounds were then diluted to 10 µM in 100 µL of fresh D10 media. Each plate utilized artemisinin and DMSO vehicle controls. To each well, 2,500 parasites per 100 µL of D10 media were added. Three technical replicates were then performed. After 48 hours, 160 µL of the D10 media was removed, and plates were subjected to freezing then thawing. Following this, 10 µL of the passive lysis buffer (Promega; Cat# E1910) was added and incubated at room temperature for 15 min. Finally, 100 µL of luciferase assay reagent (Promega; Cat# E1501) was added to each well, and luminescence was measured using a PHERAstar FSX plate reader (BMG Labtech, Germany).
(§1) For IC50 and cytotoxicity determination, we used 384 plates with confluent HFF cells. Compounds were serially diluted 3-fold with a starting concentration of 20 µM. Samples were further diluted by adding an equal volume of media containing 700 parasites. DMSO and […] of KAE609 were used as negative and positive controls, respectively. Assays were performed with a total of three technical replicates and two biological replicates. After incubation for 48 hours, 50 µL of media was removed, and plates were subjected to freezing and thawing. Following this, 10 µL of passive lysis buffer was added and plates were incubated for 15 min at room temperature. Finally, 30 µL of luciferase reagent was added, and the luminescence was measured immediately using a PHERAstar FSX. In parallel, cytotoxicity dose response was performed in the same fashion without the addition of parasites. Cell counting kit-8 reagent (GlpBio; Cat # GK10001) was added at a 1:10 dilution and incubated at 37°C, 5% CO2 for 1 hour. The absorbance was then measured at 450 nm using a PHERAstar FSX. The data management system CDD vault was used for curve fitting and IC50 determination.

[2] = test system: human foreskin fibroblasts (HFFs); assay: HFF cytotoxicity dose response (cell counting kit-8); details: for IC50: read-out: HFF IC50 (mean ± SEM); for toxicity to HFFs: highest concentrations tested (20 µM)
Protocol: as §1, with “Samples” for “For IC50 and cytotoxicity determination, we used 384 plates with confluent HFF cells. Compounds were serially diluted 3-fold with a starting concentration of 20 µM. Samples”

[3] = test system: Plasmodium falciparum (Dd2); details: read-out: PfDd2 IC50, cited from earlier work
in vitro = details: human
Protocol: as §1, with “Samples” for “For IC50 and cytotoxicity determination, we used 384 plates with confluent HFF cells. Compounds were serially diluted 3-fold with a starting concentration of 20 µM. Samples”

[4] = mean of duplicate or triplicate experiments
[5] = luciferase expressing RH88 in HFF, 48 hours
[6] = cytotoxicity, no parasites, 48 hours, CCK-8

Compound	IC50 ([1]; Toxoplasma gondii, 48 h) [nM]	IC50 ([2]; Homo sapiens, Fibroblast, 48 h) [nM]	IC50 [1, 5] [nM]	IC50 [2, 6] [nM]	other results
C[C@H]1Cc2c([nH]c3cc(Cl)c(F)cc23)[C@@]2(N1)C(=O)Nc1ccc(Cl)cc12 [KAE609, reference compound]	440 ± 34.8	> 20000			
CN(C)c1ccc2nc3ccc(=[N+](C)C)cc-3sc2c1 [Methylene blue, reference compound]	258 ± 0.95	> 20000			
CCC(=O)CCCCCC1NC(=O)C2CCCCN2C(=O)C(C(C)C)NC(=O)C(Cc2cn(OC)c3ccccc23)NC1=O (stereo not shown) [compound 120251, Apicidin C]	25.9 ± 10.2	> 20000			IC50 [3, 4]: 236 nM
C=C1Cc2ccc3[nH]c4c(c3c2[C@H]2[C@@H]1C[C@@H]2C(C)(C)O)C[C@@H]1CC[C@@]2(O)C3=C[C@@H](O)[C@@H](C(=C)C)O[C@H]3CC[C@]2(C)[C@@]41C [compound 120253, Secopenitrem D]			14100	> 20000	
COC(=O)[C@@]12Oc3ccc(-c4ccc5c(c4O)C(O)C4=C(O)C[C@H](C)[C@@H](O)[C@]4(C(=O)OC)O5)c(O)c3C(=O)C1=C(O)C[C@H](C)[C@H]2O (stereo partly shown) [compound 130002, Secalonic acid D]	334 ± 103	3730			IC50 [3, 4]: 1300 nM
CC(O)[C@@]12SS[C@]3(C(=O)N1C)[C@@H](O)C1([C@@]45c6ccccc6N[C@@H]4N4C(=O)[C@]6(C(C)O)SS[C@]4(C(=O)N6C)[C@H]5O)c4ccccc4N[C@@H]1N3C2=O (stereo partly shown) [compound 130016, Verticillin D]			36.2 ± 1.8	943.2 ± 6.4	
C=C[C@H]1C[C@@H](C)C[C@@H](C)[C@@H]1c1c(O)ccn(O)c1=O [compound 130034, Pyridoxatin]			> 8560	> 20000	
COC(=O)C12Oc3c(c(O)cc4c3C3C=CC5(C4)C(=O)c4cc(C)cc(O)c4C(O)=C5C3=O)C(O)=C1C(=O)CCC2O (stereo not shown) [compound 130143, Xanthoquinodin B2]	131 ± 36.5	> 20000			IC50 [3, 4]: 1010 nM
COC(=O)[C@@]12Oc3cc4c(c(O)c3C(=O)C1=C(O)CC[C@@H]2O)[C@@H]1C=C[C@@]2(C4)C(=O)c3cc(C)cc(O)c3C(O)=C2C1=O [compound 130144, Xanthoquinodin A1]	112 ± 74	12900			IC50 (in vitro): 12900 ± 1900 nM; IC50 [3, 4]: 250 nM
COC(=O)[C@]12Oc3cc4c(c(O)c3C(=O)C1=C(O)CC[C@@H]2O)[C@@H]1C=C[C@@]2(C4)C(=O)c3cc(C)cc(O)c3C(O)=C2C1=O [compound 130147, Xanthoquinodin A2]	56.4 ± 12.8	12300			IC50 (in vitro): 12300 ± 300 nM; IC50 [3, 4]: 680 nM
CC[C@](C)(NC(=O)[C@H](CC(C)C)NC(=O)[C@H](C)NC(=O)C(C)(C)NC(=O)[C@@H]1CCCCN1C(=O)C(C)(C)NC(=O)C(C)(C)NC(=O)CNC(=O)CCNC(=O)[C@H](CC(C)C)NC(=O)C(C)(C)NC(=O)C(C)(C)NC(=O)[C@@H]1CCCCN1C(=O)C(C)(C)NC(=O)[C@@H]1CCCCN1C(C)=O)C(=O)N[C@@H](CC(C)C)CN1CCC[N+]2=C1CCC2 [compound 150003, Efrapeptin F] (Ac-[Pip][Aib][Pip][Aib][Aib]L[βAla]G[Aib][Aib][Pip][Aib]AL[Iva]-X1; N-terminus and C-terminus assumed)			55.5 ± 11.8	> 20000	IC50 ([3]; ref Lee et al. ([8])): 399 nM
CC[C@](C)(NC(=O)[C@H](CC(C)C)NC(=O)[C@H](C)NC(=O)C(C)(C)NC(=O)[C@@H]1CCCCN1C(=O)C(C)(C)NC(=O)C(C)(C)NC(=O)CNC(=O)CCNC(=O)[C@H](CC(C)C)NC(=O)C(C)(C)NC(=O)C(C)(C)NC(=O)[C@@H]1CCCCN1C(=O)C(C)(C)NC(=O)[C@@H]1CCCCN1C(C)=O)C(=O)N[C@@H](CC(C)C)C[N+]1=C2CCCN2CCC1 [compound 150003, Efrapeptin F] (Ac-[Pip][Aib][Pip][Aib][Aib]L[βAla]G[Aib][Aib][Pip][Aib]AL[Iva]-X2)					toxicity to HFFs [2]: no toxicity
CC[C@](C)(NC(=O)[C@H](CC(C)C)NC(=O)[C@H](C)NC(=O)C(C)(C)NC(=O)[C@@H]1CCCCN1C(=O)C(C)(C)NC(=O)C(C)(C)NC(=O)CNC(=O)CCNC(=O)[C@H](CC(C)C)NC(=O)C(C)(C)NC(=O)[C@](C)(CC)NC(=O)[C@@H]1CCCCN1C(=O)C(C)(C)NC(=O)[C@@H]1CCCCN1C(C)=O)C(=O)N[C@@H](CC(C)C)CN1CCC[N+]2=C1CCC2 [compound 150004, Efrapeptin G] (Ac-[Pip][Aib][Pip][Iva][Aib]L[βAla]G[Aib][Aib][Pip][Aib]AL[Iva]-X1; N-terminus and C-terminus assumed)			12.3 ± 2.3	> 20000	IC50 ([3]; ref Lee et al. ([8])): 460 nM
CC[C@](C)(NC(=O)[C@H](CC(C)C)NC(=O)[C@H](C)NC(=O)C(C)(C)NC(=O)[C@@H]1CCCCN1C(=O)C(C)(C)NC(=O)C(C)(C)NC(=O)CNC(=O)CCNC(=O)[C@H](CC(C)C)NC(=O)C(C)(C)NC(=O)[C@](C)(CC)NC(=O)[C@@H]1CCCCN1C(=O)C(C)(C)NC(=O)[C@@H]1CCCCN1C(C)=O)C(=O)N[C@@H](CC(C)C)C[N+]1=C2CCCN2CCC1 [compound 150004, Efrapeptin G] (Ac-[Pip][Aib][Pip][Iva][Aib]L[βAla]G[Aib][Aib][Pip][Aib]AL[Iva]-X2)					toxicity to HFFs [2]: no toxicity
CCCCC[C@@H](O)C[C@@H](O)C[C@@H]1Cc2cc3cc(OC)c(-c4c(OC)cc5cc6c(c(O)c5c4O)C(=O)O[C@H](C[C@H](O)C[C@H](O)CCCCC)C6)c(O)c3c(O)c2C(=O)O1 [compound 150020, Dinapinone A]			3170	6670	
COC(=O)C1=CC(O)C(O)C(O)C1N1CC(O)C(OC(C)=O)C1Cc1ccc(OC)cc1 (stereo not shown) [compound 150029]	585 ± 14.6	28500			IC50 at 48 h (in vitro; confluent human foreskin fibroblast (HFF) cells): 28500 ± 2400 nM
COC(=O)c1c(Sc2c(O)cc(OC)c(C(=O)c3c(O)cc(C)cc3O)c2C(=O)OC)c(O)cc(OC)c1C(=O)c1c(O)cc(C)cc1O [compound 150052, Polluxochrin]	801 ± 163	> 60000			
C[C@H]1CCC/C=C/[C@@H]2C[C@H](O)C[C@H]2[C@H](O)/C=C/C(=O)O1 [compound 160010, Brefeldin A]	243 ± 78.4	6430			
CN1C(=O)[C@]2(Cc3cn([C@]45C[C@@]67SS[C@@](CO)(C(=O)N6[C@H]4Nc4ccccc45)N(C)C7=O)c4ccccc34)SS[C@@]1(CO)C(=O)N2C [compound 170066, Chetomin]	62.2 ± 3.75	369 ± 72.6			
COc1c(C[C@@H](C)OC(=O)Oc2ccc(O)cc2)c2c3c(C[C@@H](C)OC(=O)c4ccccc4)c(OC)c(=O)c4c(O)cc(OC)c(c5c(OC)cc(O)c(c1=O)c52)c43 [compound 170068, Calphostin C]	1140	> 20000			IC50 [3, 4]: 410 nM
CC1=C[C@@H]2/C=C(\C)CC[C@H](O)[C@H](O)/C=C/C(=O)[C@]23C(=O)N[C@@H](CC(C)C)[C@@H]3[C@@H]1C [compound 170081, Aspochalasin D]	1270	30300			
Alpha-cyclopiazonic acid [compound 170027]			1130	> 40000	
PF-1140 [compound 120159]			3290	> 20000	
Verticillin [compound 130038]			79 ± 29.3	82.4 ± 41.8	IC50 [3, 4]: 501 nM
